Measurements reported in ChEMBL document CHEMBL1155460, “Prediction of acetylcholinesterase inhibitors and characterization of correlative molecular descriptors by machine learning methods” (Eur J Med Chem, 2010).

Target: Acetylcholinesterase (Homo sapiens, UniProt P22303)
Sequence (P22303 whole entry): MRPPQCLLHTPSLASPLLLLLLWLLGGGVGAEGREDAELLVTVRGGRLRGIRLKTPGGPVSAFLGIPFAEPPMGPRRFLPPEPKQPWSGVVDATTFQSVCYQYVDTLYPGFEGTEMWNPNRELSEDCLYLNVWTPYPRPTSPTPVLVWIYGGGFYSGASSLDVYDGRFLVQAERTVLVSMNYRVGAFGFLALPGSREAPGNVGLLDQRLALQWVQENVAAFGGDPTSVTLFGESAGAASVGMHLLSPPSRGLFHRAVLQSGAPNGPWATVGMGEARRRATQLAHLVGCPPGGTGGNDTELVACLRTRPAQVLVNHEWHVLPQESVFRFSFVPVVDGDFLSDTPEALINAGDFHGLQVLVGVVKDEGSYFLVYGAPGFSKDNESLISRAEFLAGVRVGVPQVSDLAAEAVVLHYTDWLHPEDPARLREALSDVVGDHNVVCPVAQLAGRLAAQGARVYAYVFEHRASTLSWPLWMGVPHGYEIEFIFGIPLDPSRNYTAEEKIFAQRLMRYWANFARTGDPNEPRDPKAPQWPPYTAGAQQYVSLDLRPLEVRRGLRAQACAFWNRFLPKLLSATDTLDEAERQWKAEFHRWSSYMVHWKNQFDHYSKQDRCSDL

Row | Compound | IC50
1 | O=C(CCOCCc1c[nH]c2ccccc12)NCCCCCCNc1c2c(nc3cc(Cl)ccc13)CCCC2 | 0.0007 µM
2 | O=C(CCOCCc1c[nH]c2ccccc12)NCCCCCCCNc1c2c(nc3cc(Cl)ccc13)CCCC2 | 0.003 µM
3 | CCCc1cc(N2CCC=N2)ccc1C(=O)ON=C(N)c1ccc(C(F)(F)F)cc1 | 13 µM
4 | Nc1ccc2c(c1)c(-c1ccccc1)[n+](CCCNCCCNCCCNc1c3c(nc4ccccc14)CCCC3)c1cc(N)ccc21 | 0.00149 µM
5 | COc1ccccc1CN(C)CCCN(C)CCCNCCC[n+]1c(-c2ccccc2)c2cc(N)ccc2c2ccc(N)cc21 | 0.894 µM
6 | CC(Cc1ccc(O)cc1)C1CCC(C)C(c2ccc(O)cc2)C1 (centres undefined) | 0.62 µM
7 | Cc1c(/N=C/c2ccccc2O)cc2c(c1N)C(C)(C)CC2(C)C | 16 µM
8 | Cc1nc(N)ncc1-c1nnnn1-c1ccc(-c2ccccc2)cc1 | 27 µM
9 | Fc1ccc(N(Cc2ccc3c(c2)OCO3)C(=S)Nc2cccc(C(F)(F)F)c2)cc1 | 8 µM
10 | Cc1cc(C2(c3cc(C)c(O)c(C)c3)CCCCC2)cc(C)c1O | 15 µM
11 | O=C(CC1S/C(=N/c2ccc(C3CCCCC3)cc2)NC1=O)Nc1ccc(OC(F)(F)F)cc1 (centres undefined) | 2.9 µM
12 | CN(C)c1ccc(-c2c3cc(O)c(=O)cc-3oc3cc(O)c(O)cc23)cc1 | 22 µM
13 | COc1ccc(/N=C/c2cn(-c3ccc(OC)cc3)cc2/C=N/c2ccc(OC)cc2)cc1 | 14 µM
14 | O=C(OC1Cc2c(O)cc(O)cc2OC1c1ccc(O)c(O)c1)c1cc(O)c(O)c(O)c1 (centres undefined) | 28 µM
15 | N#Cc1cc(-c2ccccc2)nnc1NCCN1CCOCC1 [BAZINAPRINE] | 100 µM
16 | COc1ccccc1CN(C)CCCCCC(=O)N(C)CCCCCCCCN(C)C(=O)CCCCCN(C)Cc1ccccc1OC [CAPROCTAMINE] | 0.104 µM
17 | COc1cc(N)c(Cl)cc1C(=O)NC1CCN(Cc2ccccc2)CC1 [CLEBOPRIDE] | 0.89 µM
18 | O=C(Nc1cccc(C2=NCCN2)c1)Nc1cccc(C2=NCCN2)c1 [IMIDOCARB] | 0.59 µM
19 | Cc1cc(-c2ccccc2)nnc1NCCN1CCOCC1 [MINAPRINE] | 85 µM
